The text below walks through data of patent US8765735B2, “Isoxazolines as inhibitors of fatty acid amide hydrolase” (Infinity Pharmaceuticals, Inc., priority 2009, dated 2014).

Molecules are shown by their SMILES.

The target of the experiment is T1, human FAAH (Homo sapiens, UniProt O00519).
T1 construct: host or cells: COS-7 cells, transient transfection; 13,000 g membrane fraction solubilised in 1% Triton X-100
T1 sequence (O00519 1-579): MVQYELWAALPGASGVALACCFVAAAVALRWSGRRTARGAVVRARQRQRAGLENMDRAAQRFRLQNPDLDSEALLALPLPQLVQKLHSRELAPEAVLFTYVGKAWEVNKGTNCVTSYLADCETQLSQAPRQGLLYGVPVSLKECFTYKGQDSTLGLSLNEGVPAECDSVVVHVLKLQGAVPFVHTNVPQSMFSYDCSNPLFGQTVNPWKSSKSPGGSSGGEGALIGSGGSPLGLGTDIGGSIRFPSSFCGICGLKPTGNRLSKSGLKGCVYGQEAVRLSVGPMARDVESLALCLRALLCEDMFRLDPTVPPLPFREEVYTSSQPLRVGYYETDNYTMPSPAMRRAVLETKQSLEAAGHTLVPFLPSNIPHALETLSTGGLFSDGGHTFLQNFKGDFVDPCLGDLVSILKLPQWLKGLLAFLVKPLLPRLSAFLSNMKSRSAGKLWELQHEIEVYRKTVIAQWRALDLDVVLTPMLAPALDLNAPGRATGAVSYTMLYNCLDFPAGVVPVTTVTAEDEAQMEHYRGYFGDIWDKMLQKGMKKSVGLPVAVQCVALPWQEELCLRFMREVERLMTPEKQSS
Nature of the experiment: Inhibition of human FAAH (fluorescence assay, AMC arachidonoyl amide substrate). The class given is biochemical. To be noted: solubilized human FAAH from transfected COS-7 cells; 30 min preincubation; 20 μM AMC-arachidonoyl amide; 4 h at room temperature. On the procedure:
Human FAAH Preparation: COS-7 cells were split the day before, 1:5 into 150 mm×25 mm cell culture dishes (Corning Inc., Cat. No. 430599). Transient transfection took place at 30-40% confluency according to FuGENE 6 Transfection Reagent (Roche, Cat. No. 11814 443 001).
Transfection Procedure: The FuGENE transfection 6 reagent (45 uL) was added to 1410 μL of media (DMEM, serum free without pen/strep) in a 15 mL conical tube and incubated at room temp for 5 minutes, followed by the addition of FAAH plasmid DNA (15 μg) (OriGene Cat. No. TC119221, Genbank Accession No. NM_001441.1, 0.67 ug/uL) and a further incubation of 15 minutes at room temperature. The resulting solution was added into one dish of 30-40% confluent COS-7 cells in a drop-wise manner. The COS-7 cell dish was subsequently incubated for 48 hours. The cells are then harvested.
Harvest procedure: Media was aspirated from the dishes and the cells rinsed with 10 mL PBS. The PBS was removed and 3 mL of PBS added to the dish. The dish was scraped to resuspend the cells, and the subsequent cell suspension collected into a 15 mL conical tube. The cells were pelleted by centrifugation at 1200 rpm for 5 minutes in a bench top centrifuge. PBS was removed and the cell pellet snap frozen in liquid nitrogen and stored at −80° C.
COS-7 cells—FAAH purification: • (1) Fractionation: Frozen cell pellets from transient transfections were thawed on ice and resuspended in 12.5 mM Hepes pH 8.0, 100 mM NaCl, 1 mM EDTA (10 mL/0.2 g cell pellet). The pellets were dounce homogenized and then sonicated to produce cell extract. The cell extract was subsequently centrifuged at 1000 g to remove cellular debris. The pellet was discarded and the supernatant centrifuged at 13,000 g for 20 minutes. The pellet contained membrane bound FAAH. The supernatant was discarded and the pellet resolubilized. • (2) Re-solubilization: The fraction of interest, (13,000 g, membrane fraction) was re-suspended in 2.3 mL re-suspension buffer (20 mM Hepes pH 7.8, 10% v/v Glycerol, 1 mM EDTA, 1% Triton X-100) and the sample incubated on ice for 1 hour and then centrifuged to remove any particulate matter. The supernatant containing solubilized human FAAH was aliquoted and snap frozen in liquid nitrogen and stored at 80° C. until use. • (3) Characterization: Protein Concentration determined by Bradford assay. • SDS gel and Western blot to confirm presence of FAAH • FAAH activity assay • Km determination—96-well assay • Linear dependence—96-well assay • Standard compound Ki determination—384-well assay
Human FAAH assay; Experimental Protocol: A 0.1 mg/mL Human FAAH solution was made up in FAAH reaction buffer, and 24 ul pipeted into a 384 well plate. To this was added 1 μL of a 3 fold serially diluted inhibitor from a DMSO stock solution. The FAAH solution and inhibitor were incubated for 30 minutes at room temperature. The FAAH reaction was initiated by the addition of 25 μL of 40 μM AMC Arachidonoyl Amide in FAAH reaction buffer, yielding a final reaction human FAAH preparation concentration of 0.05 mg/ml and AMC-Arachidonoyl substrate concentration of 20 μM, reaction volume 50 μL. The reaction was allowed to proceed for 4 hours at room temperature. The reaction was stopped by the addition of 25 μL 12 μM a-ketoheterocycle (Cayman Chemicals, catalogue #10435). The microtiter plate was read in the envision plate reader.
The raw fluorescence was plotted on the y axis and the inhibitor concentration on the x axis to give a dose response inhibition curve. The data was fitted to a single site competitive inhibition equation, fixing the Km for the human enzyme to 12 μM and 9 μM respectively.

Consider `CS(=O)(=O)c1ccc(OC2=NOC3(CCN(C(=O)c4ccccc4)CC3)C2)cn1` [III-58], for which the Ki (in general, a dissociation constant, usually derived from enzyme kinetics or from competition with a known ligand) was in the range of 100 to 1000 nM.
The same measure for `BrC1=NOC2(CCN(Cc3ccccn3)CC2)C1` [III-22]: 100 to 1000 nM; for `CC(C)(C)[C@H]1CC[C@]2(CC1)CC(Br)=NO2` [III-2a]: 100 to 1000 nM.
`BrC1=NO[C@]2(CC[C@H](COc3ccccc3)CC2)C1` [III-8a]: the Ki was at most 100 nM.
Compound `BrC1=NOC2(CCC3(CC2)OCCO3)C1` [III-4] showed a Ki of at least 1000 nM.
In turn, `O=S(=O)(c1ccccc1)N1CCC2(CC1)CC(Br)=NO2` [III-17] gave a Ki of 100 to 1000 nM.
For `BrC1=NOC2(CCN(c3ccccc3)CC2)C1` [III-30] the value was 100 to 1000 nM; for `CC(C)(C)OC(=O)N1CCC2(CC1)CC(Cl)=NO2` [III-47], at most 100 nM.
On to `O=C(Nc1ccccc1)N1CCC2(CC1)CC(Oc1cncnc1)=NO2` [III-56], for which the Ki is at least 1000 nM.
In the case of `Clc1ccc(CN2CCC3(CC2)CC(Br)=NO3)cc1` [III-20], the Ki was at most 100 nM.
For `CC(C)(C)CN1CCC2(CC1)CC(Br)=NO2` [III-33] the value was 100 to 1000 nM.
Compound `CC(C)(C)OC(=O)N1CCC[C@]2(CC(Br)=NO2)C1` [III-10b] registered a Ki of at least 1000 nM.
Take `CC(C)(C)OC(=O)N1CC[C@]2(CC(Br)=NO2)C1` [III-11b]: the Ki lay within 100 to 1000 nM.
For `CC(C)(C)OC(=O)N1CCC2(CC1)CC(Br)=NO2` [III-9] the value was at most 100 nM; for `O=C(OCC(Cl)(Cl)Cl)N1CCC2(CC1)CC(Br)=NO2` [III-38], 100 to 1000 nM; for `CS(=O)(=O)c1ccc(OC2=NO[C@@]3(CCc4cc(OC(F)(F)F)ccc43)C2)cn1` [III-68b], at most 100 nM.
For `FC(F)(F)Oc1ccc2c(c1)CC[C@@]21CC(Oc2cncc(-c3nnco3)c2)=NO1` [III-73a] the value was at most 100 nM; for `FC(F)(F)Oc1ccc2c(c1)CC[C@]21CC(Oc2cncc(-c3nnco3)c2)=NO1` [III-73b], at most 100 nM; for `CC(C)COC(=O)N1CCC2(CC1)CC(Br)=NO2` [III-36], at most 100 nM.
Regarding `BrC1=NOC2(CCN(c3ccc(Br)cc3)CC2)C1` [III-31], the Ki is 100 to 1000 nM.
For `O=C(CCc1ccccc1)N1CCC2(CC1)CC(Br)=NO2` [III-34] the value was at most 100 nM; for `CC(=O)N1CCC2(CC1)CC(Br)=NO2` [III-15], at least 1000 nM.
The same measure for `CSc1ccc(OC2=NO[C@]3(CCc4cc(OC(F)(F)F)ccc43)C2)cn1` [III-67a]: at most 100 nM; for `COc1ccc(CN2CCC3(CC2)CC(Br)=NO3)cc1` [III-21]: at most 100 nM.
Take `ClC1=NOC2(CCN(Cc3ccc(Cl)cc3)CC2)C1` [III-48]: the Ki is at most 100 nM.
The same measure for `CC(C)(C)[C@H]1CC[C@@]2(CC1)CC(Br)=NO2` [III-2b]: 100 to 1000 nM; for `BrC1=NOC2(CCCCC2)C1` [III-1]: at most 100 nM.
`Cn1nccc1-c1ccc(OC2=NO[C@@]3(CCc4cc(OC(F)(F)F)ccc43)C2)cn1` [III-71b] gave a Ki of at most 100 nM.
Compound `CS(=O)(=O)c1ccc(OC2=NO[C@]3(CCc4cc(OC(F)(F)F)ccc43)C2)cn1` [III-68a] registered a Ki of at most 100 nM.
In turn, `BrC1=NO[C@]2(CCc3cc(Oc4ccccc4)ccc32)C1` [III-63a] had a Ki of at most 100 nM.
For `BrC1=NO[C@]2(CC[C@@H](c3ccccc3)CC2)C1` [III-3b] the value was at most 100 nM; for `FC(F)(F)c1ccc(CN2CCC3(CC2)CC(Br)=NO3)cc1` [III-26], at most 100 nM.
The same measure for `FC(F)(F)Oc1ccc2c(c1)CC[C@]21CC(Br)=NO1` [III-66b]: at most 100 nM; for `CC(C)(C)OC(=O)N1C2CCC1CC1(CC(Br)=NO1)C2` (stereo not shown) [III-13a]: at least 1000 nM.
`CC(C)(C)OC(=O)N1C[C@@H]2C(Br)=NO[C@@H]2C1` [III-43a] returned a Ki of 100 to 1000 nM.
For `Cc1ccc(CN2CCC3(CC2)CC(Br)=NO3)cc1` [III-24] the value was at most 100 nM; for `O=C(O)c1ccc(OC2=NO[C@@]3(CCc4cc(OC(F)(F)F)ccc43)C2)cn1` [III-74b], at most 100 nM.
The same measure for `Cn1cc(-c2ccc(OC3=NO[C@]4(CCc5cc(OC(F)(F)F)ccc54)C3)cn2)cn1` [III-70a]: at most 100 nM; for `BrC1=NOC2(CCN(CCc3ccccc3)CC2)C1` [III-29]: at most 100 nM; for `Clc1ccc(CN2CC3ON=C(Br)C3C2)cc1` (stereo not shown) [III-45]: at least 1000 nM.
The same measure for `BrC1=NO[C@@]2(CCc3cc(Oc4ccccc4)ccc32)C1` [III-63b]: at most 100 nM.
In turn, `O=C(CCCC(F)(F)F)N1CCC2(CC1)CC(Oc1cncnc1)=NO2` [III-57] yielded a Ki of at least 1000 nM.
The same measure for `Clc1ccc(CN2CCC3(CC2)CC(Oc2cccnc2)=NO3)cc1` [III-51]: at most 100 nM.
Regarding `O=C(OCc1ccccc1)N1CCC2(CC1)CC(Oc1cccnc1)=NO2` [III-46], the Ki is at most 100 nM.
Compound `O=C(c1ccc(Cl)cc1)N1CCC2(CC1)CC(Oc1cncnc1)=NO2` [III-55] yielded an inhibition constant Ki of at most 100 nM.
Turning to `BrC1=NO[C@]2(CC[C@H](c3ccccc3)CC2)C1` [III-3a], the Ki is at most 100 nM.
Compound `C[N+]1(C2=NOC3(CCN(C(=O)OCc4ccccc4)CC3)C2)CCCC1` [III-60] came in with a Ki of at least 1000 nM.
In turn, `Clc1cccc(CN2CCC3(CC2)CC(Br)=NO3)c1` [III-27] registered a Ki of at most 100 nM.
The same measure for `COC(=O)N1CCC2(CC1)CC(Br)=NO2` [III-35]: 100 to 1000 nM.
`CC(C)(C)OC(=O)N1CC[C@@]2(CC(Br)=NO2)C1` [III-11a]: the Ki is 100 to 1000 nM.
As to `O=C(c1ccccc1)N1CCC2(CC1)CC(Br)=NO2` [III-16], the Ki was at most 100 nM.
`C#Cc1ccc(CN2CCC3(CC2)CC(Oc2cccnc2)=NO3)cc1` [III-50] had a Ki of at most 100 nM.
For `BrC1=NOC2CC(OCc3ccccc3)CC12` (stereo not shown) [III-42] the value was 100 to 1000 nM; for `CC(C)(C)OC(=O)N1CCC[C@@]2(CC(Br)=NO2)C1` [III-10a], at least 1000 nM.
`Cn1nccc1-c1ccc(OC2=NO[C@]3(CCc4cc(OC(F)(F)F)ccc43)C2)cn1` [III-71a]: the Ki was at most 100 nM.
The compound `CC(C)(C)OC(=O)N1C[C@@H]2ON=C(Br)[C@@H]2C1` [III-43b] yielded a Ki of 100 to 1000 nM.
The same measure for `O=C(OCc1ccccc1)N1CCC2(CC1)CC(N1CCCC1)=NO2` [III-59]: at least 1000 nM; for `BrC1=NO[C@]2(CCCc3cc(Oc4ccccc4)ccc32)C1` [III-62a]: at most 100 nM; for `CC(C)(C)OC(=O)N1CCC[C@@]2(CC1)CC(Br)=NO2` [III-12a]: at most 100 nM.
In the case of `BrC1=NO[C@@]2(CCCc3cc(Oc4ccccc4)ccc32)C1` [III-62b], the Ki is at most 100 nM.
Compound `BrC1=NOC2(CCN(CC3CCCCC3)CC2)C1` [III-32] returned a Ki of at most 100 nM.
